Assay [1] addresses T1, human RAGE (Homo sapiens, UniProt Q15109).
T1 construct: human RAGE plasmid (including full-length human RAGE cDNA); expressed in transfected cells; host or cells: C6 glioma cells carrying pNF-κB-Luc plasmid and human RAGE plasmid
Nature of the assay: RAGE agonist activity of reaction samples (120° C., 60 minutes), NF-κB luciferase assay in C6 glioma cells. The format is cell-based, rat. The conditions noted are these: Test Example 2. On the procedure:
Food-derived proteins, carbohydrates and a phosphate buffer solution were charged in a 30 mL glass test tube in each amount shown in Table 6, followed by sealing and stirring, and then the mixture was reacted in an autoclave at 120° C. for 60 minutes. Next, the reactant was fractionated by centrifugation at 3,000 rpm for 3 hours using an ultrafiltration unit (VIVA SPIN 20, manufactured by Sartorius Corporation). The obtained low molecular weight fraction was used as a sample for determination of 3-DG, while the obtained high molecular weight fraction was used as a sample for the determination of fluorescent AGEs, RAGE agonist activity and RAGE antagonist activity. Food-derived proteins and carbohydrates used are as follows:
Using Luciferase Assay System (manufactured by Promega Corporation), evaluation of RAGE agonist activity was performed. (Day 1) According to the methods disclosed in Diabetes, 2006, vol. 55, pp. 2510-2522, C6 glioma cells into which pNF-κB-Luc plasmid (manufactured by Stratagene Corporation) and human RAGE plasmid (including full-length human RAGE cDNA) have been introduced were seeded at 100 μL/well into a 96-well plate and cultured in a CO2 incubator until the cells were confluent. For the culture, 10% FBS/DMEM medium was used. (Day 2) The medium was removed, and after wells were washed with 300 μL of serum-free DMEM medium, 100 μL of 0.1% FBS/DMEM medium was slowly added. Then, the medium was incubated overnight in a CO2 incubator. (Day 3) The sample was diluted using the medium, and 50 μL of the diluted sample was added to each well. AGE-BSA in which AGE was formed with glyceraldehydes (50 μg/mL) was added to a control well. After incubation in a CO2 incubator for 4 hours, the medium was removed and wells were washed 2 times with 300 μL of PBS (−). Then, 25 μL of 1× lysis buffer was added on ice. After the plate was shaken for 15 seconds, 20 μL of lysate was charged in a new white plate. Further 100 μL of a luciferase assay reagent was added, and a […] was measured by a luminometer. Using 5 μL of lysate, quantitative determination of protein was also performed.

Assay [2] has as its system fluorescent AGEs. Nature of the assay: Quantitative determination of fluorescent AGEs (relative to perylene) after reaction at 120° C. for 60 minutes. The settings on record: for Fluorescent AGEs: 120° C., 60 minutes. The format is biochemical. On the procedure:
Amino acids, carbohydrates and a phosphate buffer solution were charged in a 30 mL glass test tube in each amount shown in Table 1, followed by sealing and stirring. […] The filtrate thus obtained was used as a sample. The amino acids and carbohydrates used are as follows. After weighing 2.5 mg of a standard substance perylene, the standard substance perylene was fully dissolved in 50 mL of deaerated ethanol added thereto to prepare a perylene solution. The perylene solution diluted to the concentration of 10 μM was exposed to excitation light with a wavelength of 386 nm and then the area was calculated by measuring a fluorescence intensity ranging from 410 to 600 nm. […] Food-derived proteins, carbohydrates and a phosphate buffer solution were charged in a 30 mL glass test tube in each amount shown in Table 6, followed by sealing and stirring, and then the mixture was reacted in an autoclave at 120° C. for 60 minutes. Next, the reactant was fractionated by centrifugation at 3,000 rpm for 3 hours using an ultrafiltration unit (VIVA SPIN 20, manufactured by Sartorius Corporation). […] Food-derived proteins and carbohydrates used are as follows: After 0.4 g of a high molecular weight fraction and 8 mL of 6N hydrochloric acid were charged in an ampule and the air in the ampule was replaced with nitrogen, hydrolysis was performed at 110° C. for 16 hours in a heat block. After reaction, 8 mL of 5N sodium hydroxide was added, and pH was adjusted using 1N hydrochloric acid and 1N sodium hydroxide to make pH within a range of 7.2 to 7.6. […] Using the thus obtained filtrate as a sample, fluorescent AGEs were quantitatively determined using the following methods. After weighing 2.5 mg of a standard substance perylene, the standard substance perylene was fully dissolved in 10 mL of deaerated ethanol added thereto to prepare a perylene solution. The perylene solution diluted to the concentration of 10 μM was exposed to excitation light with a wavelength of 386 nm and then the area was calculated by measuring a fluorescence intensity ranging from 410 to 600 nm.

[3] abbreviates: gliadin + carbohydrate, protein 0.1 μg/mL, relative to control (AGE-BSA) = 1.
Setting [4] is: lactalbumin + carbohydrate, protein 10 μg/mL, relative to control (AGE-BSA) = 1.
Setting [5] is: lactic casein + carbohydrate, protein 1 μg/mL, relative to control (AGE-BSA) = 1.
The mark [6] stands for this setting: ovalbumin + carbohydrate, protein 10 μg/mL, relative to control (AGE-BSA) = 1.
[7] abbreviates: soybean casein + carbohydrate, protein 0.1 μg/mL, relative to control (AGE-BSA) = 1.
[8] abbreviates: Test Example 1, lysine + arginine 0.2 g each, carbohydrate 3.40 g each.
The mark [9] stands for this setting: Test Example 2, gliadin 0.1 g + carbohydrate 3.4 g.
The mark [10] stands for this setting: Test Example 2, lactalbumin 0.05 g + carbohydrate 3.4 g.
The mark [11] stands for this setting: Test Example 2, lactic casein 0.01 g + carbohydrate 3.4 g.
Where [12] appears, read: Test Example 2, ovalbumin 0.05 g + carbohydrate 3.4 g.
Setting [13] is: Test Example 2, soybean casein 0.01 g + carbohydrate 3.4 g.

T1 sequence (Q15109 23-404): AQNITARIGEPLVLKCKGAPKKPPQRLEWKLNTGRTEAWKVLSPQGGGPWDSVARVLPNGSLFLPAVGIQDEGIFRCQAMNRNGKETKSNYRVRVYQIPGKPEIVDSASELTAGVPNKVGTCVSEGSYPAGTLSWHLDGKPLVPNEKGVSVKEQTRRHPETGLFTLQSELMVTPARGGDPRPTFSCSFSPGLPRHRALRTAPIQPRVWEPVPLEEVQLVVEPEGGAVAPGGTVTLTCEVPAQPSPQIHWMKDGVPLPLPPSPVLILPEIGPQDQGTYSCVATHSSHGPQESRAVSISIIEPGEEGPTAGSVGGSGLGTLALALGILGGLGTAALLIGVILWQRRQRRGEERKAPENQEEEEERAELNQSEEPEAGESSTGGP

Take `OC[C@H]1O[C@@](CO)(O[C@H]2O[C@H](CO)[C@@H](O)[C@H](O)[C@H]2O)[C@@H](O)[C@@H]1O` [Sucrose, reference compound]: the RAGE agonist activity stood at 0.53 in assay [1] (setting [3]); 0.81 in assay [1] (setting [4]); 0.53 in assay [1] (setting [5]); 1.66 in assay [1] (setting [6]); 0.34 in assay [1] (setting [7]). The “Fluorescent AGEs” value in assay [2] (setting [8]) is on record as 79 nmol/1 g of amino acid; in assay [2] (setting [9]) it was 649 nmol/1 g of protein; in assay [2] (setting [10]), 119 nmol/1 g of protein; in assay [2] (setting [11]), 100 nmol/1 g of protein; in assay [2] (setting [12]), 168 nmol/1 g of protein; in assay [2] (setting [13]) it was 18 nmol/1 g of protein.

As for `OC[C@@H](O)[C@@H](O[C@H]1O[C@H](CO)[C@@H](O)[C@H](O)[C@H]1O)[C@H](O)[C@@H](O)CO` [Maltitol], the RAGE agonist activity is 0.51 in assay [1] (setting [3]); 0.79 in assay [1] (setting [4]); 0.51 in assay [1] (setting [5]); 1.42 in assay [1] (setting [6]); 0.24 in assay [1] (setting [7]); “decreased” in assay [1] (test sections 2, 5 and 11 (ovalbumin, lactalbumin, lactic casein) compared with sections 1, 4 and 10 containing sucrose). Moreover, the “production of fluorescent AGEs” value in assay [2] (Test Example 1, amino acids, compared with the test section 1 containing only sucrose) was “decreased”. The “Fluorescent AGEs” value in assay [2] (setting [8]) is 39 nmol/1 g of amino acid; in assay [2] (setting [9]) it was 632 nmol/1 g of protein; in assay [2] (setting [10]), 105 nmol/1 g of protein; in assay [2] (setting [11]), 84 nmol/1 g of protein; in assay [2] (setting [12]) it was 136 nmol/1 g of protein; in assay [2] (setting [13]), 20 nmol/1 g of protein. In addition, the “production of AGEs” value in assay [2] (Test Example 2, ovalbumin, lactalbumin, gliadin, lactic casein and soybean casein, compared with sections containing sucrose) was “decreased”.

These data come from US20130287890A1, “INHIBITOR OF THE PRODUCTION OF ADVANCED GLYCATION END PRODUCTS” (UENO FINE CHEMICALS INDUSTRY, LTD., priority 2012, published 2013).
